Laboratory results reported in patent US20150139949A1, “ANTI-VIRAL COMBINATION THERAPY” (priority 2011, published 2015).
Like-named read-outs stand apart in the source and are kept apart here.

Experiments:
hELOVL6 = target: T1, hELOVL6 (Homo sapiens, UniProt Q9H5J4); conditions: read-out: hELOVL6 IC50; cited from earlier work
T1 sequence (Q9H5J4 1-265): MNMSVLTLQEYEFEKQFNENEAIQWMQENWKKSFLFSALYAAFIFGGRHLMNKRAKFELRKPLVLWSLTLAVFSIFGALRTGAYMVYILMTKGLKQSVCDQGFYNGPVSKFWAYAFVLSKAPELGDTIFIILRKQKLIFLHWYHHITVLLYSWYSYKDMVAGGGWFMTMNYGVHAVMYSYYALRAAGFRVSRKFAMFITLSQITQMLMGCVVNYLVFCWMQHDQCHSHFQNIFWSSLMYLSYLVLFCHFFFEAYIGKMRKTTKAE

MDCK cells = assay: host cell toxicity in influenza A experiment; format: cell-based; conditions: 0.5 mM and 1 mM, 24 hours
adenovirus = adenovirus replication / titer; format: cell-based; conditions: for decrease of adenovirus titer: MRC2 cells
HCMV = HCMV replication / titer in infected fibroblasts; format: cell-based
influenza A = influenza A replication; format: cell-based
[1] = system: cholesterol ester (CE) synthesis; conditions: cited from earlier work
[2] = system: triacylglycerol (TG) synthesis; conditions: cited from earlier work
[3] = system: herpes simplex virus-1 (HSV-1); assay: HSV-1 replication; format: cell-based; conditions: nanomolar concentrations
HCV [4] = assay: HCV replication; format: cell-based, hepatitis C virus
hELOVL3 = target: T2, hELOVL3 (Homo sapiens, UniProt Q9HB03); conditions: cited from earlier work
T2 sequence (Q9HB03 1-270): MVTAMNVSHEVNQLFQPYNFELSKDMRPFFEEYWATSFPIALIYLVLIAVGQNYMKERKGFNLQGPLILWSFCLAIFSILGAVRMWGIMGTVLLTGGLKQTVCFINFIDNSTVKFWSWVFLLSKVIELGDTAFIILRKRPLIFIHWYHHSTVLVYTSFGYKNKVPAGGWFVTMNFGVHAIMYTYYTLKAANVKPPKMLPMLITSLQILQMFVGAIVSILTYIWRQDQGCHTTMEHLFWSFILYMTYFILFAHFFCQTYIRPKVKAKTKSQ

HCV [5] = assay: HCV replication in cell cultures, ACC inhibitor combined with HCV protease inhibitor (Example 1); format: cell-based
Method: HCV encoded proteolytic activity is required for infection and replication. The present example concerns the combined use of an ACC inhibitors (e.g., TOFA) and an HCV protease inihibitor (e.g., boceprevir) to antagonize viral replication. In each assay, various concentrations of TOFA are combined with various concentrations of boceprevir and cell cultures exposed to HCV are assayed for virus replication. In one series of tested combinations, a physiological concentration of boceprivir is held constant as the dose of TOFA is increased. Control cultures are treated with no drug, boceprivir alone or the various concentrations of TOFA alone. Samples are taken at 24, 48, 72 and 96 hours after initiation of drug treatment. The antiviral effect of boceprivir plus each concentration of TOFA is then compared to the activity of boceprivir alone or the various concentrations of TOFA alone. The relative toxicity of the different combinations is also assayed.

[6] = cited from earlier work

## CCCCS(=O)(=O)N1CCC[C@@H](C(=O)Nc2ccc(OC(C)C)cc2)C1
hELOVL6
  IC50: 930 nM

## NOCC(=O)O [AOAA, aminooxyacetic acid]
MDCK cells
  host cell toxicity: no evidence of host cell toxicity
adenovirus
  inhibition of adenovirus replication: inhibited the replication
adenovirus; 0.5 mM
  decrease of adenovirus titer: 20 fold
adenovirus; 1 mM
  decrease of adenovirus titer: 500 fold
HCMV
  inhibition of HCMV replication: inhibited the replication
HCMV; 0.5 mM
  decrease of HCMV replication: 100 fold
Influenza A
  decrease of influenza A replication: at least 1000 fold
  inhibition of influenza A replication: inhibited the replication

## CCC(C)[C@@H]1C(=O)/C(=C(/O)[C@@H]2[C@@H]3[C@H](C)C[C@H](C)C[C@@H]3C=C[C@@H]2[C@]2(C)O[C@H]2C)C(=O)N1C (stereo partly drawn) [PF-1052]
[1]
  inhibition of CE synthesis: inhibits both CE and TG synthesis in a dose dependent manner
HCMV; 10 μM
  inhibition of HCMV replication: profoundly inhibits
[2]
  inhibition of TG synthesis: inhibits both CE and TG synthesis in a dose dependent manner

## COC(=O)c1c2c(c3ccccc3c1O)OC(C)(C)C=C2 [rubimaillin]
[1]
  inhibition of CE synthesis: selectively inhibits CE synthesis

## CCC/C=C/C/C=C/C=C/C=N/NN=O [triacsin C]
[3]
  inhibition of HSV-1 replication: inhibit the replication
HCMV; nanomolar concentrations
  inhibition of HCMV replication: inhibit the replication
Influenza A; nanomolar concentrations
  inhibition of influenza A replication: inhibit the replication
HCV [4]; nanomolar concentrations
  inhibition of HCV replication: inhibit the replication

## O=C(Nc1ccc(C(F)(F)F)cc1)N1C2CCC1CC(S(=O)(=O)c1ccccn1)C2 (stereo not drawn) [endo-1w]
hELOVL3
  IC50: 6.94 µM
hELOVL6
  IC50: 79 nM

## CCCCCCCCCCCCCCOc1ccc(C(=O)O)o1 [TOFA, 5-(tetradecyloxy)-2-furoic acid]
HCV [5]; given TOFA concentration, boceprivir also present
  magnitude of the therapeutic effect: increased
HCV [5]; in the presence of a pharmacologically acceptable concentration of boceprivir
  concentration of TOFA required to produce a 10-fold reduction in HCV replication: markedly reduced
HCMV
  inhibition of HCMV replication: inhibited the replication
[6]; rat, in vivo, 100 mg/kg/day
  adverse effects: no adverse effects are observed
[6]; rat, in vivo, 150 mg/kg/day
  teratogenicity: not teratogenic
[6]; rats, oral
  oral LD50: greater than 5,000 mg/kg
HCV [4]
  inhibition of HCV replication: inhibited the replication

## CC(C)Oc1ccc(NC(=O)[C@@H]2C[C@@H]3CC[C@H]2N(S(=O)(=O)c2cn(C)cn2)C3)cc1
hELOVL3
  IC50: 1.51 µM
hELOVL6
  IC50: 220 nM

## CCCCS(=O)(=O)N1C[C@H]2CC[C@@H]1[C@H](C(=O)Nc1ccc(OC)cc1)C2
hELOVL6
  IC50: 1710 nM

## N=C(N)NCc1cccc([131I])c1 [MIBG, meta-iodobenzylguanidine]
HCMV; 50 μM, infected MRCS fibroblasts
  reduction of HCMV titer: about 70%
